Experimental findings from patent publication US7507718B2, “Polymyxin B analogs for LPS detoxification” (Sanofi Pasteur, priority 2005, dated 2009) are described below.

The subject of one data set is IL6 release. Nature of the data set: In vivo cytokine release in sera of CD1 mice (ELISA): IL6. On the set-up: species or system mouse. The protocol: (§1) In order to evaluate to which extent the LPS-peptide complex can attenuate LPS-induced toxic effects, the effect of the LPS-peptide complex on the release of pro-inflammatory cytokines is monitored (assessed) in in vitro and in vivo assays. • In vivo: cytokine (IL6 and TNFα) releases in the sera of mice immunized either with LPS or LPS-peptide complex are compared by ELISA. Blood samples are recovered 90 min after SC immunization, which is the optimal time for the release of those cytokines. C3H/HeOuJ, TLR4-/-, C3H/HeN and CD1 mouse strains are tested. The two first are sensitive neither to LPS nor LPS-peptide complex. The third and fourth are both found LPS-sensitive. CD1 mice are found more LPS-peptide complex-sensitive than the others and therefore selected for further experiments retaining the most severe conditions. • In vitro:cytokine (IL6, IL8 and TNFα) releases from human whole blood cell cultures stimulated for 24h at 37° C., with different concentrations of LPS or LPS-peptide complex are compared. 5.4.1. In Vivo Assay
(§2) CD1 mice are administered subcutaneously (SC) (i) either 10 μg of LPS or (ii) 10 μg of LPS-peptide complex. They are bled 90 minutes after injection. IL6 and TNFα releases are measured in the sera by ELISA. […]
(§3) The reaction is stopped by adding 100 μl of 1 M H3PO4 per well. Plates are read at 450 nm.
(In general: An ELISA detects its analyte on a solid surface through an enzyme-linked reagent.)

In another data set the test system is TNFα release. The data set can be described thus: In vivo cytokine release in sera of CD1 mice (ELISA): TNFα. On the set-up: species or system mouse. How it is done: as §1, §2, §3
Data set [1] relates to N. meningitidis strain used for LPS production. Nature of the data set: Serum bactericidal activity (SBA) of sera of immunized rabbits. Particulars: individual rabbits. The data set is classed as in vivo. How it is done:
Immunization of three adult New-Zealand rabbits is performed with 100 μg of LPS-peptide complex by intramuscular (IM) and subcutaneous (SC) routes (2×0.5 mL and 5×0.2 mL respectively) in the presence of adjuvant. They receive three injections at 3-week interval; the first one with complete Freund adjuvant (FA), the second and third ones with incomplete Freund adjuvant. They are bled two weeks after the last injection. A control group is immunized with the peptide with adjuvant (71 μg, equivalent to the amount of the peptide in 100 μg of LPS-peptide complex) using the same protocol.
The bactericidal activity of the serum (SBA) samples is evaluated against the N. meningitidis strain used for LPS production as described in Example 5 in the presence of baby rabbit serum as exogenous source of complement.
Sera are heat-inactivated during 30 min at 56° C. In the wells of a 96-well microplate, heat-inactivated sera are then twofold serially diluted (10 times) in Dulbecco's phosphate buffered saline containing Ca^++ and Mg^++ (volume per well: 50 μl).
Twenty five μl of a log phase culture of N. meningitidis grown in Mueller-Hinton broth (4.10^3 CFU/mL) and 25 μl of baby rabbit serum are added to each well. The plate is incubated one hour at 37° C., under shaking.
Fifty μl of the mixture from each well are plated onto Mueller-Hinton agar. Petri dishes are incubated overnight at +37° C. in a 10% CO2 atmosphere.
In each experiment, controls include (i) bacteria and the complement source without antibodies (complement control), (ii) bacteria and heat-inactivated complement, and (iii) bacteria and heat-inactivated complement, in the presence of antibodies.
Bactericidal titre is reported as the highest reciprocal serum dilution at which ≧50% killing of bacteria is observed as compared to the complement control.

Where [2] appears, read: 10 μg SC, sera 90 minutes after injection.

Values joined by “and” are separate entries in the source; they are usually repeats but may differ in a detail not shown here. Identical values can stand only once. Bridge positions count the residues as written; N and C are the ends. Peptide text beside a SMILES is read from it. I, II: the chains in the order shown.

Regarding `CC(C)C[C@@H]1NC(=O)[C@H](CC(C)C)NC(=O)[C@H](CC(C)C)NC(=O)[C@H](Cc2ccccc2)NC(=O)[C@H](CCCCN)NC(=O)[C@@H](NC(=O)[C@H](CCCCN)NC(=O)[C@@H](NC(=O)[C@@H](N)CCCCN)[C@@H](C)O)CSSC[C@@H](C(=O)O)NC(=O)[C@H](CC(C)C)NC(=O)[C@H](CC(C)C)NC(=O)[C@H](CC(C)C)NC(=O)[C@H](Cc2ccccc2)NC(=O)[C@H](CCCCN)NC(=O)[C@@H](NC(=O)[C@H](CCCCN)NC(=O)[C@@H](NC(=O)[C@@H](N)CCCCN)[C@@H](C)O)CSSC[C@@H](C(=O)O)NC1=O` [Peptide, NH2-Lys-Thr-Lys-Cys1-Lys-Phe-Leu-Leu-Leu-Cys2-COOH] (I: H-KTKCKFLLLC-OH / II: H-KTKCKFLLLC-OH; disulfide I:4-II:10, I:10-II:4), the “IL6 release, Mean (pg/mL) n = 6 (log)” value in the data set with IL6 release (setting [2]) was <1 pg/mL (log). The “Induction of IL6 (in words)” value with IL6 release (peptide alone) is listed as “does not induce”. Besides, in the data set with TNFα release (setting [2]), the “TNFα release, Mean (pg/mL) n = 6 (log)” value is given as <1 pg/mL (log). Further, the “Induction of TNFα (in words)” value in the data set with TNFα release (peptide alone) is recorded as “does not induce”. Also, the “SBA titre, Pre-immunized sera” value in data set [1] (baseline before immunization, baby rabbit complement) was 4 and 16. In data set [1] (100 μg complex or 71 μg peptide IM+SC with Freund adjuvant, three injections), the “SBA titre, Post-dose 3 immunized sera” value is listed as 16. The “SBA titre, Post-dose 3 immunized sera adsorbed on LPS” value in data set [1] (sera adsorbed on LPS) was 4 and 8.
